Values of other authors, collected in US20160074320A1, “PHARMACEUTICAL COMPOSTIONS COMPRISING KISSPEPTIN OR DERIVATIVES THEREOF” (OURO FINO SAÚDE ANIMAL LTDA, priority 2013, published 2016).
Ends that are not written are not given here.

Legend:
[1] = system: sheep; conditions: Kp-10 applied 30 h after removal of intra-vaginal progesterone device (CIDR)
[2] = system: sheep; conditions: sheep in anestrus, low and sustained (30 to 48 h) doses IV
[3] = system: prepubertal heifers

Substance: Kp-10: 10 amino acid fragment cleaved from kisspeptin, the 145 amino acid protein encoded by Kiss-1 gene (YNWNSFGLRF; ends and bridges not checked; UniProt Q15726 112-121, looked up, fragment)
- peak of LH, time after removal of CIDR [1]: ~32 h
- ovulation, share of animals [2]: more than 80%
- hormone release ([3]; IV administration): induces the release of LH and growth hormone (GH)
- LH pulses (Redmond and collaborators) ([3]; IV injections): increase of frequency and amplitude of the pulses of LH
